Reference: ChEMBL document CHEMBL5465560, “Selectivity Literature for EUbOPEN Chemogenomic Library” (2024)
Values belong to the compound of their own block, whether it stands above or below them.

What was measured:
[1] = molecular target: Death-associated protein kinase 1 (Homo sapiens, UniProt P53355); assay: Selectivity interaction (Kinase panel (DSF assay)) EUB0001559a DAPK1
[2] = molecular target: Glycogen synthase kinase-3 beta (Homo sapiens, UniProt P49841); assay: Selectivity interaction (KinomeScan (DiscoverX)) EUB0000655a GSK3B; conditions: at 10 µM
[3] = molecular target: Tyrosine-protein kinase JAK2 (Homo sapiens, UniProt O60674); assay: Selectivity interaction (KinomeScan (DiscoverX)) EUB0000607a JAK2; conditions: at 10 µM
Tyrosine-protein kinase JAK2, sequence (O60674 whole entry): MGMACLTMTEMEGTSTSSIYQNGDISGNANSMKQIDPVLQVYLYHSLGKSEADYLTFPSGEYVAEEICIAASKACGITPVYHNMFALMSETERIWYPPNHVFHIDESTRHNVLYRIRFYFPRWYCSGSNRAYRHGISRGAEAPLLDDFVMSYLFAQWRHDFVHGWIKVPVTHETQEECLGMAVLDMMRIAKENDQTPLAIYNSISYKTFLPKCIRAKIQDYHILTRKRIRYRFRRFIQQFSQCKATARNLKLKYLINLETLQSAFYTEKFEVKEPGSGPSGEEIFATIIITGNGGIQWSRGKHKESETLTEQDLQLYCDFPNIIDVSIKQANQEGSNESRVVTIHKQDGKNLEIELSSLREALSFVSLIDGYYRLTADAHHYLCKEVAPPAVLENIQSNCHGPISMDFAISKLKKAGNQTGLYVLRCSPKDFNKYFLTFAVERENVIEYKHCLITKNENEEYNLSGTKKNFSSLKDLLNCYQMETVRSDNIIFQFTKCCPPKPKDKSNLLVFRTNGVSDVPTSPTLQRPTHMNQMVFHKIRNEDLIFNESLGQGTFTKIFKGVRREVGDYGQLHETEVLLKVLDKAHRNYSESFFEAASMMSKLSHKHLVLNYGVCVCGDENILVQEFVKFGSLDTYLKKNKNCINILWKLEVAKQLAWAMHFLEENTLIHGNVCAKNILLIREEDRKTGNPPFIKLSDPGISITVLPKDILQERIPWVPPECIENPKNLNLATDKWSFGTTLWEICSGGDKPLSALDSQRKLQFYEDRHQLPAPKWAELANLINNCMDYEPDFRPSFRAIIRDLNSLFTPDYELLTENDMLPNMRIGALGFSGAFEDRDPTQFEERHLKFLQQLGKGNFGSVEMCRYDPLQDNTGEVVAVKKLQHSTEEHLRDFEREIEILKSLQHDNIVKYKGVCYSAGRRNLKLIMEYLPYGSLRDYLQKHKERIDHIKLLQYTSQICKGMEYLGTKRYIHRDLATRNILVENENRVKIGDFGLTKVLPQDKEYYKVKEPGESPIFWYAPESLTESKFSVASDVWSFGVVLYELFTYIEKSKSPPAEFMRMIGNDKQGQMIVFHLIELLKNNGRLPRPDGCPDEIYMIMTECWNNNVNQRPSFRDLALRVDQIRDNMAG

[4] = molecular target: Serine/threonine-protein kinase Nek4 (Homo sapiens) (UniProt P51957); assay: Selectivity interaction (KinomeScan (DiscoverX)) EUB0000045b NEK4
Serine/threonine-protein kinase Nek4 (Homo sapiens), sequence (P51957 whole entry, looked up): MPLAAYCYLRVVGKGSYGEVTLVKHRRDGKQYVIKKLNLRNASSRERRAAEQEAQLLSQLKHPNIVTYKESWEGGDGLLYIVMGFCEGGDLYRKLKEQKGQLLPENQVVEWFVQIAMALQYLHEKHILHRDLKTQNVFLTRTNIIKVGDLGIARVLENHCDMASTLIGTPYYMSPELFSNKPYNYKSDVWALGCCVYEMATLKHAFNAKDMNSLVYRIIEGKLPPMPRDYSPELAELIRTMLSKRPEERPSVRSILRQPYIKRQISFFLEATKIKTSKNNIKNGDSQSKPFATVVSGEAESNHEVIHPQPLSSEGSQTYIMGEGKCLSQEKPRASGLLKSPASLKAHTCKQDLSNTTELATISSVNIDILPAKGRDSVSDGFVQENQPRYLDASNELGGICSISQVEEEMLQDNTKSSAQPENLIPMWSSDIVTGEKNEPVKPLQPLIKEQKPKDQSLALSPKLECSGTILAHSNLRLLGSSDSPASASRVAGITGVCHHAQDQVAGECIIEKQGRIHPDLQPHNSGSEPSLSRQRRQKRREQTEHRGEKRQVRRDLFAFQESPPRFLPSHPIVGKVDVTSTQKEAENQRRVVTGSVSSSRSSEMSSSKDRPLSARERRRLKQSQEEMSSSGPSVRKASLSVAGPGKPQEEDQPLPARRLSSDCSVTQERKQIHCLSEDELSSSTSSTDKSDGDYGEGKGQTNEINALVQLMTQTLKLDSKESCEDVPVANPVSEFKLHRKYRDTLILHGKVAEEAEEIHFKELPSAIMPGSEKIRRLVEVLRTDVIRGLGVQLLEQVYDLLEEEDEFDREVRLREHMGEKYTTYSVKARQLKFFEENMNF

[5] = molecular target: T1, NUAK family SNF1-like kinase 1 (Homo sapiens) (UniProt O60285); assay: Selectivity interaction (KinomeScan (DiscoverX)) EUB0000595a NUAK1; conditions: at 10 µM
T1 sequence (whole entry): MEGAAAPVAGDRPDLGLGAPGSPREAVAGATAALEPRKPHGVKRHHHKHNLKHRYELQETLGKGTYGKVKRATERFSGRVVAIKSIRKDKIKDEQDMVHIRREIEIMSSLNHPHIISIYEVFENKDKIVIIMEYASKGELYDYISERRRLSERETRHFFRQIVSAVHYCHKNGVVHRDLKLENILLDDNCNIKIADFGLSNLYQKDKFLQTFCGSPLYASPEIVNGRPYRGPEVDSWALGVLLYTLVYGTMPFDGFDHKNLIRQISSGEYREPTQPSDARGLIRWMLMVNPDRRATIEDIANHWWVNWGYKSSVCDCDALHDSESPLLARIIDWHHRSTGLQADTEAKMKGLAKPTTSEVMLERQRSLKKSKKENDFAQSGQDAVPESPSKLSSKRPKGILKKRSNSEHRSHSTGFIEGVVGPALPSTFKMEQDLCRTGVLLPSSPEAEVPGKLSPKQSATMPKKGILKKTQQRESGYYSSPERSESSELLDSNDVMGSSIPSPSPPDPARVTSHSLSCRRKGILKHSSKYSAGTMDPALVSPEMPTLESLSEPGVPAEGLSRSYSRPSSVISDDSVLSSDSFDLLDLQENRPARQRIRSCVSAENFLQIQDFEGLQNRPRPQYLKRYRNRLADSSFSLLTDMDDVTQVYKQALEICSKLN

[6] = molecular target: Macrophage colony-stimulating factor 1 receptor (Homo sapiens) (UniProt P07333); assay: Selectivity interaction (KinomeScan (DiscoverX)) EUB0000595a CSF1R; conditions: at 10 µM
[7] = molecular target: Vascular endothelial growth factor receptor 3 (Homo sapiens, UniProt P35916); assay: Selectivity interaction (ProQinase) EUB0000171b FLT4
Vascular endothelial growth factor receptor 3, sequence (P35916 whole entry): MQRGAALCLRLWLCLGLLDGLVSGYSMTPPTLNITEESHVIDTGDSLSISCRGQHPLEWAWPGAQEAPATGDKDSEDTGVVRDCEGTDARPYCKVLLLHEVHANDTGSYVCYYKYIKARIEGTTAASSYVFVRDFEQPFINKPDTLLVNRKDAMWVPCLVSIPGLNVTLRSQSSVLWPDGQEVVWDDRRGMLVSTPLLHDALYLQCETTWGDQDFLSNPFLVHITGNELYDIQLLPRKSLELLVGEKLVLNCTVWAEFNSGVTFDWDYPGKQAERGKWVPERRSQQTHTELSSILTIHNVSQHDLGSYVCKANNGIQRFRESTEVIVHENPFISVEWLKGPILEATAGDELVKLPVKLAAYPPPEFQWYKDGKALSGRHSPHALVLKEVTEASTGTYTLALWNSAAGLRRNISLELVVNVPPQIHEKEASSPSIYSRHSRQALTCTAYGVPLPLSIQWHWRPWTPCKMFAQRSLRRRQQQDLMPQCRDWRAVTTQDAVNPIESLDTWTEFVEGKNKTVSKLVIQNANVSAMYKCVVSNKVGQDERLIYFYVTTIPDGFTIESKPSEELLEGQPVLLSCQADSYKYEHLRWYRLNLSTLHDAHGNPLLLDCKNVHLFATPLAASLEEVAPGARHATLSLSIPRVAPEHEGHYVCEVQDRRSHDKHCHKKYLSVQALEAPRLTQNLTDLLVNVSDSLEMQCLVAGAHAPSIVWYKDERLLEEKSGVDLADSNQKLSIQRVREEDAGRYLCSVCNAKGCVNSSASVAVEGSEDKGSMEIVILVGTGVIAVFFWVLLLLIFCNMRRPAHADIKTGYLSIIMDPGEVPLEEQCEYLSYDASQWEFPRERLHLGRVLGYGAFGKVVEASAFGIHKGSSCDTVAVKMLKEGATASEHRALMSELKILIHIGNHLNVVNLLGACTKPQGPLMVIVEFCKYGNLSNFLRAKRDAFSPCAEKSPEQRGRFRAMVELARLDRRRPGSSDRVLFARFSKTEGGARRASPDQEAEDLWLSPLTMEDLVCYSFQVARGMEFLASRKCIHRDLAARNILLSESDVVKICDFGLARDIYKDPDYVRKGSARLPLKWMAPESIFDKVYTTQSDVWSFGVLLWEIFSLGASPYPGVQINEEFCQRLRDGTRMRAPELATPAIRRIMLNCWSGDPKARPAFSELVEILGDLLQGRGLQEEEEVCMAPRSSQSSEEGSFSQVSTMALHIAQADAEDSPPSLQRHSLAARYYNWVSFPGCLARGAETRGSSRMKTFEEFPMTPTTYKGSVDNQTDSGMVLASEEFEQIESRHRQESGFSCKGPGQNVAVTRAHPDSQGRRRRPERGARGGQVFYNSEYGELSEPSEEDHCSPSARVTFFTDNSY

[8] = molecular target: T2, Dual specificity tyrosine-phosphorylation-regulated kinase 2 (Homo sapiens) (UniProt Q92630); assay: Selectivity interaction (KinomeScan (DiscoverX)) EUB0001049a DYRK2; conditions: at 1 µM
T2 sequence (whole entry): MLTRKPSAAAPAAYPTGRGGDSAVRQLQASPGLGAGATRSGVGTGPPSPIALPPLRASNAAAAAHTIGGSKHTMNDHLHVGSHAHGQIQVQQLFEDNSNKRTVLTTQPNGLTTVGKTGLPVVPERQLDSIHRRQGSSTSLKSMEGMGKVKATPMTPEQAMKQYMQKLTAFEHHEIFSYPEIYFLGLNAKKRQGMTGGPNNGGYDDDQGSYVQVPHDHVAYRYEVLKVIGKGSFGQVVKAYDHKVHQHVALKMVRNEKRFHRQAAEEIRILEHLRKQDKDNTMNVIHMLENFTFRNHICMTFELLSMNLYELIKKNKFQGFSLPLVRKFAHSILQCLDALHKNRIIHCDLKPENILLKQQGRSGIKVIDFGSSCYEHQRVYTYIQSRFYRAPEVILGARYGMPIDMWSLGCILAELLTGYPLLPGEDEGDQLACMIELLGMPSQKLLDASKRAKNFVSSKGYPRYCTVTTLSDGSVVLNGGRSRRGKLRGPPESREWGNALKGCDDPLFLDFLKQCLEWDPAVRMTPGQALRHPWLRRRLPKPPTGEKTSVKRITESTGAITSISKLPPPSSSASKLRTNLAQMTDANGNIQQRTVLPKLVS

[9] = molecular target: T3, Serine/threonine-protein kinase TAO1 (Homo sapiens) (UniProt Q7L7X3); assay: Selectivity interaction (KinomeScan (DiscoverX)) EUB0000666a TAOK1; conditions: at 10 µM
T3 sequence (whole entry): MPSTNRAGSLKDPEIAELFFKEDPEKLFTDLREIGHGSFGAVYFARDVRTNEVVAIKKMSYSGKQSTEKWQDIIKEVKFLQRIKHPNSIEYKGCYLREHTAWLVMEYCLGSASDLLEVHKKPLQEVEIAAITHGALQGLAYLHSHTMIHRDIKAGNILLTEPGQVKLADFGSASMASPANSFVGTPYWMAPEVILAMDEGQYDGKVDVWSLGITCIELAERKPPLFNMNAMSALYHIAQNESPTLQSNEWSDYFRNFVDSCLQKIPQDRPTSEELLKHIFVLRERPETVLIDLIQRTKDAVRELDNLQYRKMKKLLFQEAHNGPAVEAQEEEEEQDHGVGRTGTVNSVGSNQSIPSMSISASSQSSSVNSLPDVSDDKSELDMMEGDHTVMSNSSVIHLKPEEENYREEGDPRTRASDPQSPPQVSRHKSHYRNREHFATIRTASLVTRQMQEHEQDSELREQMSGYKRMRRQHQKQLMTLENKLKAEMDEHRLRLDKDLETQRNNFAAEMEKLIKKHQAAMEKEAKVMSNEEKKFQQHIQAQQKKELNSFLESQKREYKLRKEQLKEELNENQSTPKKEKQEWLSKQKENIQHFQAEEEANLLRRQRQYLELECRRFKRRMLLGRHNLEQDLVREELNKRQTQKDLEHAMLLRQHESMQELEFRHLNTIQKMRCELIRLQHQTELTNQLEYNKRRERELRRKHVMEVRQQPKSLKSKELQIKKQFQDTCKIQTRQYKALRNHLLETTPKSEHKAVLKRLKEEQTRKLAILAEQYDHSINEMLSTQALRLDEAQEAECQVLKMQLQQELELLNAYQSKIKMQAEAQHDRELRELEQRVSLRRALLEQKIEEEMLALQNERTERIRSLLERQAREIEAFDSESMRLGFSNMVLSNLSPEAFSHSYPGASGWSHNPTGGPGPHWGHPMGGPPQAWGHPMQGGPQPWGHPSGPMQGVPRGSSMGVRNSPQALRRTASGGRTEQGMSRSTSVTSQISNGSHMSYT

[10] = molecular target: Tyrosine-protein kinase Fes/Fps (Homo sapiens) (UniProt P07332); assay: Selectivity interaction (KinomeScan (DiscoverX)) EUB0000092b FES; conditions: at 10 µM
[11] = molecular target: Interferon-induced, double-stranded RNA-activated protein kinase (Homo sapiens) (UniProt P19525); assay: Selectivity interaction (KinomeScan (DiscoverX)) EUB0000092b EIF2AK2; conditions: at 10 µM
[12] = molecular target: Protein polybromo-1 (Homo sapiens) (UniProt Q86U86); assay: Selectivity interaction (Human bromodomain panel (DSF assay)) EUB0000233b PBRM1
Protein polybromo-1 (Homo sapiens), sequence (Q86U86 whole entry): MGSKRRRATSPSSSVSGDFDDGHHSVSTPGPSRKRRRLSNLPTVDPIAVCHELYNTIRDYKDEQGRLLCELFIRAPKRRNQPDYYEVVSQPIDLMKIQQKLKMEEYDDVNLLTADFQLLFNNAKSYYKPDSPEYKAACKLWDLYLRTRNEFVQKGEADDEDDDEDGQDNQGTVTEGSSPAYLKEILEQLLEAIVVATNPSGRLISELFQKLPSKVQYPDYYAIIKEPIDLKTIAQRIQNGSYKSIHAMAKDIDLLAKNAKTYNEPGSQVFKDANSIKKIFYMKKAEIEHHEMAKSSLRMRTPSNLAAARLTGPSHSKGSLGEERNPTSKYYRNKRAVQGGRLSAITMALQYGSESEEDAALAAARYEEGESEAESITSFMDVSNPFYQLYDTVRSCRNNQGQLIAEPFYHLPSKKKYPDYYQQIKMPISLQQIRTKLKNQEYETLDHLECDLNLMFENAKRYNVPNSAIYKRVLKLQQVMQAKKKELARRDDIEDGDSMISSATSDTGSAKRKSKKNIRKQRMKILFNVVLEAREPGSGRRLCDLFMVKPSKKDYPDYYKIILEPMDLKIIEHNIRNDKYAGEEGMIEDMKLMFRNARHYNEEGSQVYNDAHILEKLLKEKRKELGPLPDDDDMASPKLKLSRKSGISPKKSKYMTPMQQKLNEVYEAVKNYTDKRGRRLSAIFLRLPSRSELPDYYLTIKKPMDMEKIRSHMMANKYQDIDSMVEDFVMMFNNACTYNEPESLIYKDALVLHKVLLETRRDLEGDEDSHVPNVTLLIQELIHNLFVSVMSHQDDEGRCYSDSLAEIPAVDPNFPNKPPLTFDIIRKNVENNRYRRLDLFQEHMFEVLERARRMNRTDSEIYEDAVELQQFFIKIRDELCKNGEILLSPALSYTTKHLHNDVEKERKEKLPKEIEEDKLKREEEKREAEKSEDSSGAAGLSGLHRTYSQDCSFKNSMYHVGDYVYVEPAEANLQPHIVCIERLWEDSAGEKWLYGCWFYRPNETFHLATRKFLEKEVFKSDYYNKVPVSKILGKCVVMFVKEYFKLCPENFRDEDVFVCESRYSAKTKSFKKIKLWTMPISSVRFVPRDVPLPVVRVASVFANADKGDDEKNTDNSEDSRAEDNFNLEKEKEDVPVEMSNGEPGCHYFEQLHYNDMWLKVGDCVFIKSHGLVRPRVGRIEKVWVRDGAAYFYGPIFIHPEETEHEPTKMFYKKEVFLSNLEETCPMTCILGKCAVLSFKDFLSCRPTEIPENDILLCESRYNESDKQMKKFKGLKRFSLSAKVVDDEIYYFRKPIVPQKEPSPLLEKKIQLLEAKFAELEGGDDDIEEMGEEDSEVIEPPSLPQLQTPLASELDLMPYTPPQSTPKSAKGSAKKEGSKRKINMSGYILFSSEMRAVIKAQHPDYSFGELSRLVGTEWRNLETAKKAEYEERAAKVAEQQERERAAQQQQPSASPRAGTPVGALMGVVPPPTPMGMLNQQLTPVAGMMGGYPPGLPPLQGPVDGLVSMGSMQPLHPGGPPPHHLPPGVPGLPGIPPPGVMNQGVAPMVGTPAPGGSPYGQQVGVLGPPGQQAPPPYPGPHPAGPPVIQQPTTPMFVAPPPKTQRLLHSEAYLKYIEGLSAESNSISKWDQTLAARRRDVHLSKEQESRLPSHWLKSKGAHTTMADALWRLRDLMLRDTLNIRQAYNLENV

Structure (SMILES): CN(C(=O)c1cnn2cccnc12)c1cc2c(cc1N1CCOCC1)C(=O)N(C[C@@H](F)C(C)(C)O)C2
dTM [1]: -0.3 K

Structure (SMILES): CN(C)CCOc1ccc(-c2nc(-c3ccncc3)c(-c3ccc4c(c3)CC/C4=N\O)[nH]2)cc1
% of control [2]: 81%

Structure (SMILES): CNC(=O)Nc1ccc(-c2nc(N3CC4CCC(C3)O4)c3cnn(C4CCC5(CC4)OCCO5)c3n2)cc1
% of control [3]: 100%

Structure (SMILES): C=CC(=O)Nc1cc(-n2c(=O)ccc3cnc4ccc(-c5ccc(NS(C)(=O)=O)cc5)cc4c32)ccc1C
% of control ([4]; at 1 µM): 81% | % of control ([4]; at 10 µM): 100%

Structure (SMILES): COCC(=O)NC/C=C/c1ccc2ncnc(Nc3ccc(Oc4ccc(C)nc4)c(C)c3)c2c1 [CP-724714]
% of control [5]: 100% | % of control [6]: 100%

% of control ([7]; at 1 µM): 73% | % of control ([7]; at 5 µM): 68%
Structure (SMILES): C=CC(=O)Nc1cccc(C(=O)Nc2ccc(Nc3cc(-c4[nH]c(SC)nc4C)ccn3)cc2)c1

Structure (SMILES): COc1cc(Nc2nc(C)cc(-c3cnn4nc(OC)ccc34)n2)cc(C(F)(F)F)c1
% of control [8]: 79%

Structure (SMILES): O=C(NOC[C@H](O)CO)c1ccc(F)c(F)c1Nc1ccc(I)cc1F
% of control [9]: 100%

Structure (SMILES): CCC(=O)N1CCN(c2ccc(-n3c(=O)ccc4cnc5ccc(-c6cnc7ccccc7c6)cc5c43)cc2C(F)(F)F)CC1
% of control [10]: 41% | % of control [11]: 88%

dTM [12]: < 2 K
Structure (SMILES): CN(C)CCCOc1ccc(-c2cc(NCCCn3cccn3)nc(S(C)(=O)=O)n2)cc1
